Test results: US20220260552A1, “Methods to determine the effect of an agent on mammalian embryonic development” (Toxys B.V., priority 2019, published 2022)

Tests used:
[1] = tested on: mES cells differentiated towards cardiomyocytes; test: mES cell differentiation towards cardiomyocytes, beating embryoid bodies counted; type: cell-based, mouse; conditions: after 13 days of differentiation; FIG. 5B
From the text: FIG. 5: Defective cardiomyocyte differentiation upon teratogenic compound exposure. mES cells were exposed to teratogenic compounds during mES cell differentiation towards cardiomyocytes. The percentage of beating 3D embryoid bodies (examples in A), representing functional cardiomyocytes, was counted. (B) Quantification of beating bodies. Presented values are expressed as percentages of control. Students t-test was used to determine significance. *p<0.05, **p<0.01, ***p<0.001.
For cardiomyocyte differentiation embryonic bodies were used, formed by hanging drops containing 750 cells in Iscoves's Modified Dulbecco's Medium (IMDM). Prior to hanging drop formation, cells were cultured on gelatine-coated dishes in IMDM supplemented with 20% FBS. Cells were detached with cell dissociation buffer (Gibco). After 3 days, embryonic bodies were transferred to a bacterial plate in differentiation medium (IMDM, 10% serum (unless specified otherwise), PS, NEAA and 2-mercapto ethanol). On day 5, the bodies were transferred to a 48-well plate in differentiation medium containing 2% serum, BMP, Activin A, Chir99021 and Xav939. On day 7 embryonic bodies were exposed to only Xav939 in differentiation medium and on day 11 all growth factors were removed and replaced with differentiation medium. Day 13 was used as endpoint for cardiomyocyte differentiation. On this day, beating bodies were quantified and RNA samples collected.

[2] = tested on: GFP-Ck18 mES reporter cells; test: mES GFP-Ck18 reporter cell differentiation towards hepatocytes, GFP fluorescence intensity; type: cell-based, mouse; conditions: after 21 days of differentiation; normalized to DAPI; FIG. 8
Protocol: FIG. 8: Defective hepatocyte differentiation upon teratogenic compound exposure. mES GFP-Ck18 reporter cells were exposed to different teratogenic compounds during mES cell differentiation towards hepatocytes. After 21 days, fluorescence intensity of the hepatocyte specific GFP-Ck18 reporter was measured using microscopy and quantified using Fiji image processing software. GFP intensity was normalized to nuclear intensity measured using DAPI. Presented values are expressed as percentages of control. Student t-test was used for determination of significance. *p<0.05 **p<0.01.*** p<0.001.
Hepatocyte differentiation was started from a monolayer of mES cells on day −1. On day 0, differentiation medium supplemented with Activin A was added. On day 4, the medium was replaced with liver differentiation medium (DMEM containing 10% serum, PS, NEAA and 2-mercaptoethanol) with aFGF and sodium butyrate. On day 9, the medium was replaced with liver differentiation medium containing HGF. On day 14, cells were exposed to liver differentiation medium containing Dexamethasone and Oncostatin M. From day 17 onwards, liver differentiation medium was refreshed every 3-4 days. Endpoint of differentiation was set on day 21.
mES cells were seeded on gelatin-coated culture dishes 24 h prior to transfection. […] GFP expression in differentiated cells was determined by flow cytometry.

[3] = tested on: hiPSC cells differentiated towards hepatocytes; test: hiPSC differentiation towards hepatocytes in presence of compound, biomarker expression by qPCR; type: cell-based, human
Protocol: The hepatocyte differentiation protocol is based on (Chen et al., 2012, which is incorporated herein by reference). In brief, hiPSC cells were seeded on day −4 in mTESR medium on Matrigel. On day 0 the mTESR medium was replaced with RPMI medium containing B27, Activin A, Chir99021, HGF and PS. On day 3, the cells were refreshed with DMEM medium containing KO serum replacement, Glutamax, NEAA, 2-mercaptoethanol, DMSO and PS. On day 7, the medium was replaced with IMDM medium containing oncostatin M, dexamethasone, ITS, Glutamax, NEAA and PS. On day 10, 14 and 17, cells are refreshed with IMDM medium containing ITS, Glutamax, NEAA and PS. RNA samples were collected on day 0, day 7 and day 21 of differentiation.
(§1) To assess the effect of potential teratogenic agents, hiPSC were treated with the test material from day 0 until the end of differentiation. When differentiation medium was refreshed, fresh compound was added.
(§2) Induction of the biomarker expression was compared with the expression of the gene in undifferentiated cells using quantitative real-time PCR (qRT-PCR). At several time points during differentiation, total RNA was isolated using Trizol […]. Complementary DNA was synthesized using oligo(dT) primers and SuperScript […] ReverseTranscriptase (Invitrogen) according to the manufacturer's protocol. Expression of biomarker genes was determined using specific primers (SEQ ID NOs: 68-99, 105 and 106) spanning the exon-exon boundaries of the genes with the PowerUP SYBR Green Master Mix (Applied Biosystems) on a Quantstudio 5 Real-Time PCR System (Applied Biosystems) using ROX as a passive reference. Relative expression was normalized using expression of the GAPDH and HPRT genes.

[4] = tested on: hiPSC cells differentiated towards cardiomyocytes; test: hiPSC differentiation towards cardiomyocytes in presence of compound, biomarker expression by qPCR; type: cell-based, human
Protocol: Briefly, on day −4, hiPSC cells were seeded in 24-well plates in mTESR medium on Matrigel. On day 0, the medium was replaced with BEL medium (IMDM, HF12 medium, PFHMII medium, BSA, ITS-X, CD lipids, α-Monothioglycerol, Glutamax, PS and ascorbic acid) containing BMP4, Activin A and Chir99021. At day 3 of differentiation, the medium was refreshed with BEL containing Xav939. On day 7 and 10 of differentiation, the medium was replaced with BEL without growth factors. RNA samples were collected on day 0, day 7 and day 14 of differentiation.
Induction of the biomarker expression was compared with the expression of the gene in undifferentiated cells using quantitative real-time PCR (qRT-PCR). At several time points during differentiation, total RNA was isolated using Trizol (Qiagen). Complementary DNA was synthesized using oligo(dT) primers and SuperScript VI ReverseTranscriptase (Invitrogen) according to the manufacturer's protocol. […] Relative expression was normalized using expression of the GAPDH and HPRT genes.

[5] = tested on: hiPSC cells differentiated towards neural rosettes; test: hiPSC differentiation towards neural rosettes in presence of compound, biomarker expression by qPCR; type: cell-based, human; conditions: compound added during differentiation, day 0 until end, FIG. 2
Protocol: The protocol for neural differentiation is based on (Lippmann, Estevez-Silva, & Ashton, 2014, which is incorporated herein by reference). In short, hiPSC were seeded in mTESR medium on Matrigel on day −1. On day 0, medium was replaced with E6 medium with PS to start differentiation. Medium was refreshed with E6 medium on Day 3 and 7. RNA samples were collected on day 0, day 7 and day 10.
as §1, §2

beating cardiomyocytes (beating embryoid bodies) [1] | GFP-Ck18 intensity [2] | Expression of MYH6 in cardiomyocytes [4] | Expression of PAX6 in neural rosettes [5] | Expression of AFP in hepatocytes [3] | Expression of ALB in hepatocytes [3] | Structure (SMILES) | biomarker expression during hepatocyte differentiation ([3]; compound present during differentiation, qPCR, T-test vs vehicle control, FIG. 3)
decrease | significantly reduced | – | – | – | – | O=c1[nH]cc(F)c(=O)[nH]1 [5′fluoracil, 5-fluorouracil] | –
– | – | – | – | – | – | C=CC(N)=O [acrylamide] | no significant reduction
decrease | – | – | – | – | – | O=C1NC(=O)C(c2ccccc2)(c2ccccc2)N1 [diphenylhydantoin] | –
decrease | significantly reduced | reduced | reduced | reduced | reduced | CC1=C(/C=C/C(C)=C/C=C/C(C)=C/C(=O)O)C(C)(C)CCC1 [retinoic acid, All-trans retinoic acid] | –
